Measured values published in patent publication US7396836B2, “Pyrimidine compound and medicinal composition thereof” (Eisai R&D Management Co., Ltd., priority 2001, dated 2008).

Assays:
adenosine A2A receptor = target: T1, adenosine A2A receptor (Homo sapiens, UniProt P29274); experiment: Binding ability to adenosine A2A receptor (3H-CGS21680 displacement); settings: A2A receptor membrane sample, Cheng-Prusoff
T1 construct: purchased Receptor Biology Inc
Protocol: Measurement of the Binding Ability to Adenosine A2A Receptor
An experiment of inhibition of binding to adenosine A2A receptor was conducted using a membrane sample (Receptor Biology Inc.) where an adenosine A2A receptor cDNA was expressed in excess. This membrane sample was suspended at a protein concentration of 22.2 μg/ml in 20 mM HEPES buffer, pH 7.4 (10 mM MgCl2 and 100 mM NaCl). To 0.45 ml of this membrane sample suspension were added 0.025 ml of 500 nM tritium-labeled 2-p-[2-carboxyethyl]phenetylamino-5′-N-ethylarboxyamide adenosine (^3H-CGS21680, from NEN) and 0.025 ml of test compound. This mixture was left at 25° C. for 90 minutes, filtered rapidly under suction through a glass fiber filter (GF/B, from Whatman), and immediately washed twice with 5 ml of 50 mM ice-cooled Tris-HCl buffer. Thereafter, the glass fiber filter was transferred to a vial, scintillator was added thereto, and the radioactivity on the filter was measured by a liquid scintillation counter. The inhibition of binding of ^3H-CGS21680 to A2A receptor by the test compound was determined using the following formula, and from this inhibition, 50% inhibition concentration (IC50) was calculated. Inhibition (%)=[1−{[(binding in the presence of the test compound)−(nonspecific binding)]/[(total binding)−(nonspecific binding)]}]×100
(§1) Here, the total binding means ^3H-CGS21680-bound radioactivity in the absence of the test compound; the nonspecific binding means ^3H-CGS21680-bound radioactivity in the presence of 100 μM RPIA; and the binding in the presence of the test compound means ^3H-CGS21680-bound radioactivity in the presence of the test compound at predetermined concentrations. The inhibition constant (Ki value) in the table was determined from the formula of Cheng-Prusoff.

SD IGS rats = experiment: Evaluation of defecation-promoting action; assay type: in vivo, rat; settings: 3 mg/kg oral, 90 minutes after administration, per cage (3 animals/cage)
Description: Evaluation of Defecation-Promoting Action
The defecation-promoting action of the adenosine A2B receptor-inhibiting compound which was identified by measuring the binding affinity or antagonistic activity thereof to the adenosine receptor in Test Examples 1 to 3, a salt thereof, a solvate of them, or a pharmaceutical composition containing it can be evaluated on the basis of the following method. That is, SD IGS rats (6 weeks-old, from Charles River) were placed in cages (3 animals/cage) and preliminarily allowed food and water ad libitum and raised for 1 week. Then, a tared water-absorbing sheet was placed below each cage, and the animals were fasted but allowed water ad libitum throughout the experiment. After 1.5 hours, the fecal pellets were collected from each cage and observed for abnormality before the experiment. The compound suspended or dissolved in 0.5% (w/v) methyl cellulose (MC) was orally administered in a volume of 5 ml/kg. On one hand, 0.5% (w/v) MC only was orally given to the control group. After administration of the compound, the rats were returned to the cage provided with a new water-absorbing sheet, and 90 minutes after the administration, the fecal pellets on the water-absorbing sheet were collected from each cage, and the external appearance was observed, and then counted and weighed. The number of fecal pellets is expressed per each cage.

[1] = tested on: haloperidol-induced catalepsy; experiment: Evaluation of effects on haloperidol-induced catalepsy; assay type: in vivo, mouse; settings: ICR mice, haloperidol 1 mg/kg i.p., 1 hour after administration, score 0-5
Description: Evaluation of Effects on Haloperidol-induced Catalepsy Parkinson's disease is a disease caused by the degeneration or cell death of nigrostriatal dopaminergic neurons. The administration of haloperidol (dopamine D1/D2 receptor antagonist) blocks postsynaptic D2 receptors to induce catalepsy. The haloperidol-induced catalepsy has been known as a classic model that mimics Parkinson's disease by drug administration (Eur. J. Pharmacol., 182, 327-334(1990)). The adenosine A2A receptor antagonist compounds identified by measuring on their binding abilities to the receptors in Test Examples 1 to 3, the salts thereof, solvates of them, or pharmaceutical compositions containing those were evaluated for effect on haloperidol-induced catalepsy by the method described below. That is, the experiment was conducted by eight 5-week-old male ICR mice (available from Charles River) per group. Haloperidol (manufactured by Sigma Co., Ltd.) was dissolved in a 6.1% tartaric acid solution and the resulting solution in a dose of 1 mg/kg was then intraperitoneally administered to the mice. The test compound was used as a 0.5% MC suspension. 1.5 hours after the intraperitoneal administration of haloperidol, each of the suspension with the test compound and the suspension without the test compound (control) was orally administered to the mice (0.1 ml per 10 g of mouse body weight). 1 hour after the administration of the test compound, the degree of catalepsy was measured with respect to each of the mice such that a pair of only forelimbs and a pair of only hindlimbs of each mouse were placed by turns on a stand 4.5 cm in height and 10 cm in width. […] Catalepsy scores and criterions are as follows. […] The effects of the compound were determined by making a comparison between the score of the control group and the score of the test group in which the test compound was administered. A significant difference was analyzed by Dunnett's-test.

[2] = target: T2, human adenosine A2B receptor (Homo sapiens, UniProt P29275); experiment: Inhibition of NECA-stimulated production of cAMP in adenosine A2B receptor-expressing CHOK1 cells; assay type: cell-based; settings: cAMP stimulated by 30 nM NECA
T2 construct: expressed in transfected cells; host or cells: CHOK1 cells
T2 sequence (P29275 1-332): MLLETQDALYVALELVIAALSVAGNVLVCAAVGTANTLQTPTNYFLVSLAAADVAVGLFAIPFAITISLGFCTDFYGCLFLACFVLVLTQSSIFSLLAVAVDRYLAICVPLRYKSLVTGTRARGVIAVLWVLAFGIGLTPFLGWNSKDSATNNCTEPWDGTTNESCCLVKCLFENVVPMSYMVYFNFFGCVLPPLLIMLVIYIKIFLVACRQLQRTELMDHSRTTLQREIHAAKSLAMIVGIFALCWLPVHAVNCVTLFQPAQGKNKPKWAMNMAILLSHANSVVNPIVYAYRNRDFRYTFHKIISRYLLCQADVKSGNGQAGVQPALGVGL
Protocol: Experiment of Inhibition of NECA-stimulated Production of cAMP in Adenosine A2B Receptor-expressing Cells
CHOK1 cells where human adenosine A2B receptor had been expressed in excess were plated onto a 24-well plate at a density of 1.5×10^5 cells/well, cultured overnight, and used in the experiment. The degree of inhibitory effect of the test compound on the amount of cAMP produced by stimulation with 30 nM 5′-N-ethylcarboxyamide adenosine (NECA from Sigma) was evaluated in terms of affinity for A2B receptor. That is, the adhering cells were washed twice with 2 ml/well Krebs-Ringer buffer solution (containing 0.1% BSA; pH 7.4) and pre-incubated for 30 minutes in a volume of 0.5 ml/well. Then, a mixed solution containing NECA and the test compound was added in a volume of 0.1 ml/well in the presence of a phosphodiesterase inhibitor Ro-20-1724 (a product of RBI). After pre-incubation for 15 minutes, the reaction was terminated with 0.1 N HCl in a volume of 300 μl/well. Measurement of intracellular cAMP was carried out using a cAMP enzyme immunoassay kit produced by Amersham. The inhibition of NECA-stimulated production of cAMP by the test compound was determined using the following equation: Inhibition (%)=[1−{(amount of cAMP in the coexistence of NECA and the test compound-amount of cAMP in only the Krebs-Ringer buffer solution)/(amount of cAMP upon stimulation with NECA only-amount of cAMP in only the Krebs-Ringer buffer solution)}]×100

[3] = target: T3, human adenosine A1 receptor (Homo sapiens, UniProt P30542); experiment: Binding affinity to adenosine A1 receptor (3H-CCPA displacement); settings: membranes of CHOK1 cells expressing human A1 receptor, Cheng-Prusoff
T3 construct: expressed in transfected cells; host or cells: CHOK1 cells (membrane sample)
T3 sequence (P30542 1-326): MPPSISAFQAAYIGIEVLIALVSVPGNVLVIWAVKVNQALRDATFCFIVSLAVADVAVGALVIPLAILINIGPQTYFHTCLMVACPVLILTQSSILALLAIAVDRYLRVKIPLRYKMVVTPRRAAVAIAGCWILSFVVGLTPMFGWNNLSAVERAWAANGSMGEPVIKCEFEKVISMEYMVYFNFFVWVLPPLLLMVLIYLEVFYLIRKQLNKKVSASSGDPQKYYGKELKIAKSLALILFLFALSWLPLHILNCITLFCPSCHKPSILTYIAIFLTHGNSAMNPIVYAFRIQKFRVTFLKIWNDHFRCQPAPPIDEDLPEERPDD
Protocol: Measurement of the binding affinity to adenosine A1 receptor
A human adenosine A1 receptor cDNA was expressed in excess in CHOK1 cells, and this membrane sample was suspended at a protein concentration of 66.7 μg/ml in 20 mM HEPES buffer, pH 7.4 (10 mM MgCl2, 100 mM NaCl). To 0.45 ml of this membrane sample suspension were added 0.025 ml of 60 nM tritium-labeled chlorocyclopentyl adenosine (^3H-CCPA, from NEN Ltd.) and 0.025 ml of test compound. This mixture was left at 30° C. for 120 minutes, filtered rapidly under suction through a glass fiber filter (GF/B, from Whatman), and immediately washed twice with 5 ml of 50 mM water-cooled Tris-HCl buffer. Thereafter, the glass fiber filter was transferred to a vial, scintillator was added thereto, and the radioactivity on the filter was measured by a liquid scintillation counter. The inhibition of binding of ^3H-CCPA to A1 receptor by the test compound was determined using the following formula, and from this value, 50% inhibition concentration (IC50) was calculated. Inhibition (%)=[1-{(binding in the presence of the test compound-nonspecific binding)/(total binding-nonspecific binding)}]×100
as §1, with “In the above formula,” for “Here,”, “^3H-CCPA-bound” for “^3H-CGS21680-bound”, “CPA ([…]);” for “RPIA;”

T1 sequence (P29274 whole entry): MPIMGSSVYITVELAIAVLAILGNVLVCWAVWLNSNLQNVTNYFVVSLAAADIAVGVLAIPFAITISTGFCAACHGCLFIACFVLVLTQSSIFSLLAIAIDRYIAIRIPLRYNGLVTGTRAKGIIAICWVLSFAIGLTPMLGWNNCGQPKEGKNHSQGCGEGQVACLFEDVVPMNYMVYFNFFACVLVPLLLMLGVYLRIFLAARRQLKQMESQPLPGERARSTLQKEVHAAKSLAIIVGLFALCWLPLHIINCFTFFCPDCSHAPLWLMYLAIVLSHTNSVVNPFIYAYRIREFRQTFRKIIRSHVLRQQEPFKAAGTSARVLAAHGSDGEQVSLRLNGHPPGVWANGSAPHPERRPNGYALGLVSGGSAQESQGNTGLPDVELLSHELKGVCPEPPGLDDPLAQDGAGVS

Row | SMILES | Ki (adenosine A2A receptor) | Number of fecal pellets Mean ± S.E. (SD IGS rats) | Catalepsy score (Mean ± S.E.) ([1]; test compound 0.1 mg/kg oral) | Catalepsy score (Mean ± S.E.) ([1]; test compound 1.0 mg/kg oral) | IC50 [2] | Ki [3]
1 | Cn1cc(-c2cnc(N)nc2-c2ccco2)ccc1=O [Example 16, 5-[2-Amino-4-(2-furyl)-5-pyrimidinyl]-1-methyl-1,2-dihydro-2-pyridinone] | 6 nM | 12.50 ± 0.96 | 4.63 ± 0.38 | 0.88 ± 0.64 | 29 nM | 175 nM
2 | C=CCn1cc(-c2cnc(N)nc2-c2ccco2)ccc1=O [Example 18, 1-Allyl-5-[2-amino-4-(2-furyl)-5-pyrimidinyl]-1,2-dihydro-2-pyridinone] | 2 nM | 14.50 ± 1.26 |  |  | 26 nM | 114 nM
3 | CCn1cc(-c2cnc(N)nc2-c2ccco2)ccc1=O [Example 17, 5-[2-Amino-4-(2-furyl)-5-pyrimidinyl]-1-ethyl-1,2-dihydro-2-pyridinone] | 3 nM | 15.50 ± 3.18 | 3.38 ± 0.53 | 1.13 ± 0.67 | 25 nM | 289 nM
